Series [1] can be described thus: Population pharmacokinetic. The following applies: base model without covariates.
The conditions of series [2]: cited from earlier work.
For series [3] the following is noted: general statement, no reference given; cited from earlier work.

For `CN[C@H](CC(C)C)C(=O)N[C@H]1C(=O)N[C@@H](CC(N)=O)C(=O)N[C@H]2C(=O)N[C@H]3C(=O)N[C@H](C(=O)N[C@H](C(=O)O)c4cc(O)cc(O)c4-c4cc3ccc4O)[C@H](O)c3ccc(c(Cl)c3)Oc3cc2cc(c3O[C@@H]2O[C@H](CO)[C@@H](O)[C@H](O)[C@H]2O[C@H]2C[C@](C)(N)[C@H](O)[C@H](C)O2)Oc2ccc(cc2Cl)[C@H]1O` [vancomycin], in series [1], the “θ1CL, population typical value of CL, base model” value turned out to be 2.47 L/h and the “θ2Vd, population typical value of Vd, base model” value amounted to 142 L. Moreover, the “Vd, PopPK model” value in series [2] (Adult Chinese patients, n = 72, 1-compartment model, ref 7 (Deng)) is recorded as 47.76 L. Besides, the “V2, PopPK model” value in series [2] (Adult Gram-positive bacterial infection in ICU, n = 103, ref 25 (Weng Fangjuan)) is recorded as 44.2 L. For the same compound, the “CL, PopPK model” value in series [2] (MRSA infectors, n = 76, 1-compartment model, ref 11 (Leu)) is reported as “CLCR”. Further, the “Fraction of vancomycin excreted through the kidney” value in series [3] was 90%.

The record behind these values is PMC6520475 (European Journal of Drug Metabolism and Pharmacokinetics, 2018).
